Like-named read-outs stand apart in the source and are kept apart here. Square brackets hold non-standard residues; d marks the D form. Peptide text beside a SMILES is read from it. * marks the point of attachment. Sta = CC(C)C[C@H](N)[C@@H](O)CC(=O)O; Isovaleryl = CC(C)CC(=O)*

Here are results for three molecules from publication PMC9343461, “Molecular and in vivo studies of a glutamate-class prolyl-endopeptidase for coeliac disease therapy” (Nature Communications, 2022).

Experiment [1] has as its target T1, neprosin (mature catalytic domain, recombinant) (Nepenthes ventricosa x Nepenthes alata, UniProt C0HLV2).
T1 construct: Mature catalytic domain S129-Q380 from autolysis of pro-neprosin at P128-S129 (pro-domain R25-P128 removed); C-terminal Ala-Ile-Ala plus His6 tag kept; expressed in human Expi293F cells; glycosylated at N145 and N152; monomer
Description: fluorogenic peptide cleavage (FS6-QPQL), inhibition curve. The experiment is classed as biochemical.

For experiment [2], the target named is T2, mature neprosin (catalytic domain, S129-Q380) with C-terminal His6 tag (Nepenthes x ventrata, UniProt C0HLV2 129-380, N-linked glycans at N145 and N152).
T2 construct: neprosin from Nepenthes x ventrata, UniProt C0HLV2, catalytic domain S129-Q380 released by cleavage at P128-S129; C-terminal purification tag, numbered A401-I402-A403 + H404-H409; written as a part because it lies in the active-site cleft of a symmetry mate; also called neprosin CD; mature enzyme; source: human Expi293F cells; pro-neprosin purified (Ni-NTA), autolysis at pH 2.5, then SEC; in the …
T2 sequence: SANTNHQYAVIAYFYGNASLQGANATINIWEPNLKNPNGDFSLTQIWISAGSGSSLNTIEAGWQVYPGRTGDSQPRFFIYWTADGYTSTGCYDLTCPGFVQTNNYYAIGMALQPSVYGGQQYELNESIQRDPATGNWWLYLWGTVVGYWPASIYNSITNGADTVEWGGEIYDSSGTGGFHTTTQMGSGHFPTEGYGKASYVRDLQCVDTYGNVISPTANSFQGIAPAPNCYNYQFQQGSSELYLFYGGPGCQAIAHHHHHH
Briefly: crystal structure; orthorhombic crystals of pro-neprosin (native and Lu-Xo4 derivative), polypeptide cleaved at P128-S129; protein in 20 mM Tris-HCl pH 7.5, 150 mM NaCl; reservoir 0.1 M sodium acetate pH 4.0, 22% PEG 6000, 10% isopropanol, 20 °C. The following applies: both partners purified.

As for `CC(C)CC(=O)N[C@H](C(=O)N[C@H](C(=O)N[C@@H](CC(C)C)[C@@H](O)CC(=O)N[C@@H](C)C(=O)N[C@@H](CC(C)C)[C@@H](O)CC(=O)O)C(C)C)C(C)C` [pepstatin A] (Isovaleryl-VV[Sta]A[Sta]-OH), the IC50 in experiment [1] (50 nM neprosin, 10 μM FS6-QPQL, 100 mM glycine pH 3.0, 37 °C, pre-incubated >1 h (pre-incubation stated for the inhibitor screen)) worked out at 140 µM.
For the molecule `O=[N+]([O-])c1ccc(OCC2CO2)cc1` (stereo not drawn) [EPNP, 2-[(4-nitrophenoxy)methyl]oxirane], the IC50 in experiment [1] came to 480 µM.

B1: neprosin pro-domain (PD, R25-P128) (domain or fragment, Nepenthes x ventrata, UniProt C0HLV2 25-128, looked up)
chain: RSIQARLANKPKGTIKTIKGDDGEVVDCVDIYKQPAFDHPLLKNHTLQMQPSSYASKVGEYNKLEQPWHKNGECPKGSIPIRRQVITGLPVVKKQFPNLKFAPP
notes: neprosin from Nepenthes x ventrata, UniProt C0HLV2, N-terminal pro-domain R25-P128: globular part A29-G112 and linker L113-P128; Defined in the map from A29 onwards; Y77-N86 and N122 onwards are disordered; also called cleaved PD; source: human Expi293F cells; pro-neprosin purified (Ni-NTA, SEC), found cleaved at P128-S129 in the crystals
On to B1, for which the binding result in experiment [2] is “binds”.
